Test results: article PMC10824102, “Identification of small molecule inhibitors of G3BP-driven stress granule formation” (The Journal of Cell Biology, 2024)

How the values were obtained:
[1] = test system: G3BP1 and FUS R495X puncta in U2OS cells with tdTomato-tagged endogenous G3BP1; assay: Pretreatment before FUS R495X transfection, cytoplasmic puncta area; assay type: cell-based; conditions: 50 μM, 20 min before FUS R495X transfection, 24 h
Procedure: U2OS cells with knock-in of G3BP1-tdTomato ([Yang et al., 2020]) were seeded into 96-well plates (3904; Corning). Either GFP-VCP-A232E or GFP-FUS-R495X were transfected into cells using ViaFect transfection reagent (Promega) 24 h prior to the start of the experiment. For samples to be treated with compounds G3Ia or G3Ia′, Hoechst (1:5,000; Biotium) was added and incubated for 30 min prior to the start of the experiment, washed once with PBS, and the media was changed to 100 μl FluoroBrite DMEM media (Gibco) upon starting the experiment. Imaging of plates was performed on a Cytation C10 spinning disk confocal (BioTek) with a Hamamatsu Orca-Flash 4.0 camera using Gen5 software (version 3.11). Imaging was performed through an Olympus Plan Apo 40× 0.6 NA dry objective with an adjustable collar set to 0.5 μm thickness. Laser autofocus prior to imaging the tdTomato channel was utilized for each image. The temperature was maintained at 37°C on the instrument and the cells were supplied with 5% CO2. A 7 × 7 tilescan was taken at the center of each well, capturing the tdTomato and GFP channels (and Hoechst when present). After completing the tilescan, 100 μl FluoroBrite with 100 μM (2×) G3I compound (vortexed for 5 s) was added to each well and incubated for 20 min before starting another round of imaging in the same locations as the first round. Samples treated with G3Ib or G3Ib′ were analyzed manually, scoring each cell with spontaneous granules for the presence or absence of granules following treatment with the compound. For experiments in which G3I compounds were pretreated prior to transfection, 50 μM of indicated compound or vehicle control were added to U2OS cells 20 min prior to the addition of the transfection reagent. After 24 h of transfection, the cells were washed with PBS, fixed in 4% formaldehyde, and incubated with Hoechst (1:5,000; Biotium) in PBS for 30 min prior to the start of the experiment, washed once with PBS, and at room temperature imaging on the Cytation C10 spinning disk confocal was performed as described above.
Samples treated with G3Ia or G3Ia′ were analyzed using an automated pipeline. Segmentation was performed in both ilastik and Cellpose 2.0. Nuclear segmentation using the Hoechst channel and granule segmentation in both GFP and tdTomato channels was performed via pixel classification in ilastik using small cropped portions of the tilescan as the training dataset for each. Individual cell segmentation was performed in Cellpose 2.0 by inputting a merged RGB of the Hoechst and G3BP1-tdTomato channels. The Cellpose output was then eroded by one pixel and set as a binary mask in Fiji. […]

[2] = test system: U2OS cells; assay: Cytotoxicity assay (CellTiter-Glo, ATP levels); assay type: cell-based; conditions: 24 h, ATP levels by luciferase signal
Procedure: U2OS (HTB-96), HEK293T (CRL-3216), and HeLa (CCL-2) cells were originally purchased from ATCC and periodically authenticated by short tandem repeat (STR) profiling. Cells were grown in Dulbecco’s modified Eagle’s medium (DMEM) supplemented with 10% fetal bovine serum (FBS), 1% penicillin/streptomycin, and 1% L-glutamine. Cells were counted using ADAM-CellT (NanoEntek), plated, and transfected using either Lipofectamine 3000 (L3000008; Thermo Fisher Scientific) or Viafect (E4981; Promega) for transient overexpression according to the manufacturer’s instructions. Cytotoxicity was assayed using CellTiter-Glo 2.0 reagent (Promega) according to the manufacturer’s instructions.

[3] = molecular target: T1, NTF2L domain of G3BP1 (GFP-NTF2L) interaction with caprin 1 and USP10 (Homo sapiens, UniProt Q13283); assay: Coimmunoprecipitation of GFP-NTF2L with caprin 1 and USP10 in HEK293T lysates; assay type: biochemical; conditions: 25 and 50 μM, GFP IP
T1 construct: lysates expressing the NTF2L domain of G3BP1 (GFP-NTF2L); expressed in transfected cells; host or cells: HEK293T cells expressing GFP-NTF2L (lysate)

[4] = molecular target: T2, interaction between G3BP1 and endogenous USP10 (Homo sapiens, UniProt Q13283); assay: Coimmunoprecipitation of G3BP1-GFP with endogenous USP10 in U2OS lysates; assay type: biochemical; conditions: increasing concentrations added to U2OS G3BP1-GFP lysates, GFP IP
T2 construct: expressed in transfected cells; host or cells: U2OS cells stably expressing G3BP1-GFP (lysate)
Procedure: U2OS cells expressing G3BP1-GFP were grown in 3-cm dishes to 100% confluency, at which point cells were collected and pelleted at 400 × g for 5 min. Pellets were either stored at −80°C or processed the same day by lysing with 200 μl in vivo lysis buffer (150 mM NaCl, 50 mM Tris [pH 7.5], 1 mM EDTA, 0.5% NP-40, and 10% glycerol, supplemented with 1 protease inhibitor tablet [11836170001; Roche]). Lysates were centrifuged at 13,000 × g at 4°C for 15 min, after which supernatants were transferred to a new tube and diluted with 200 μl lysis buffer containing indicated concentrations of G3I compounds. The mixture was then incubated with GFP-Trap (ChromoTek GFP-Trap Magnetic Agarose; Proteintech; gtma) for 2 h at 4°C. Beads were washed three times with lysis buffer, then incubated with 1× SDS sample buffer supplemented with 10% 2-mercaptoethanol, and boiled for 5 min at 95°C. Lysates were subjected to SDS-PAGE and then immunoblotted.
Samples were separated by SDS-PAGE and transferred to membranes. […] Membranes were visualized and quantified with an Odyssey Fc imaging system (LI-COR) and normalized to the amount of G3BP1 immunoprecipitated.

T2 sequence (Q13283 whole entry): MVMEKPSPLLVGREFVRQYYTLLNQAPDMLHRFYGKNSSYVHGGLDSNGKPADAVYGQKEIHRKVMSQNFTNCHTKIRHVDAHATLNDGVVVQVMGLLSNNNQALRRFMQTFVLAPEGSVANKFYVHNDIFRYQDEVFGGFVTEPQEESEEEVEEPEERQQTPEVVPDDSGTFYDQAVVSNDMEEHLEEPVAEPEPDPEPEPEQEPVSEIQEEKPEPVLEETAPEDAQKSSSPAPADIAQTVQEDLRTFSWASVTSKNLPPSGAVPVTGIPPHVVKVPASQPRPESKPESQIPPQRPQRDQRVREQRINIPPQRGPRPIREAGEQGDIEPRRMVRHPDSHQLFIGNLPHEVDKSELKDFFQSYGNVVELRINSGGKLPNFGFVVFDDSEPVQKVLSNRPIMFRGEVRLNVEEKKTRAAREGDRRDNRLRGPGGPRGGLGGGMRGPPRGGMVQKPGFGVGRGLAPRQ
T1 sequence (Q13283 11-133 limits assumed): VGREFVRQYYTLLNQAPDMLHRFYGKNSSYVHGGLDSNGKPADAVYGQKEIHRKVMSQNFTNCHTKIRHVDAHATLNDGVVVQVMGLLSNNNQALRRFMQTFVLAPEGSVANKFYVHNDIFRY

SMILES: COCCC(NC(=O)C(C)NC(=O)C(NC(=O)C(NC(=O)C(F)CC(C)(C)C)C(C)(C)O)C(C)c1ccccc1)C(=O)N(C)Cc1ccccc1 (stereo not drawn) [G3Ia]
- area of G3BP1 found in puncta compared with vehicle-treated cells [1]: reduced the area of G3BP1 found in puncta
- formation and incorporation of FUS R495X into cytoplasmic granules [1]: failed to block the formation and incorporation of FUS R495X into cytoplasmic granules
- cell-based toxicity [2]: do not appear to induce cellular toxicity or growth phenotypes

SMILES: CC(NC(=O)C(NC(=O)C(NC(=O)CCC(C)(C)C)C(C)(C)O)C(C)c1ccccc1)C(=O)N1CCCC1c1ccccc1 (stereo not drawn) [G3Ib]
- interaction of NTF2L domain with caprin 1 and USP10 [3]: dose-dependent reduction
- interaction between G3BP1 and endogenous USP10 [4]: dose-dependent reduction
- area of G3BP1 found in puncta compared with vehicle-treated cells [1]: reduced the area of G3BP1 found in puncta
- formation and incorporation of FUS R495X into cytoplasmic granules [1]: failed to block the formation and incorporation of FUS R495X into cytoplasmic granules
- cell-based toxicity [2]: do not appear to induce cellular toxicity or growth phenotypes

SMILES: CC(NC(=O)C(NC(=O)C(NC(=O)CCC(C)(C)C)C(C)(C)O)C(C)c1ccccc1)C(=O)N1CCCC1c1ccccc1 (stereo not drawn) [G3Ib′]
- interaction between G3BP1 and endogenous USP10 [4]: no such effect
